Structures are written as SMILES.

The target of this test is mouse TAAR1 (Mus musculus, UniProt Q923Y8). The test can be described thus: Radioligand binding to TAAR1 in membranes of stably transfected HEK293 cells.
mouse TAAR1, sequence (Q923Y8 whole entry): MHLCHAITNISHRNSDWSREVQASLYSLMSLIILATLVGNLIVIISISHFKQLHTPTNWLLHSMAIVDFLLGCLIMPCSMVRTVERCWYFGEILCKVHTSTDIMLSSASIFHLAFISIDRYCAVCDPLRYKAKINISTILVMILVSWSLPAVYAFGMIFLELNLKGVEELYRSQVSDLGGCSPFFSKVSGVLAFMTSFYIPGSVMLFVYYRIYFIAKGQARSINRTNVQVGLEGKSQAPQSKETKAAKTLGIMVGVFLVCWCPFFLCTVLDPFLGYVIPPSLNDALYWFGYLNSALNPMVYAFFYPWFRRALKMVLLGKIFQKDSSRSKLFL
Consider `C[C@H]1OC(N)=N[C@H]1Cc1ccccc1` [Example 12a, (4S,5R)-4-benzyl-5-methyl-4,5-dihydro-oxazol-2-ylamine], for which the Ki is 175 nM.

In turn, `C[C@@H]1OC(N)=N[C@H]1CCc1ccc(Cl)c(Cl)c1` [Example 15a, (4S,5S)-4-[2-(3,4-dichloro-phenyl)-ethyl]-5-methyl-4,5-dihydro-oxazol-2-ylamine] had a Ki of 8 nM.

Turning to `CC1OC(N)=N[C@H]1CCc1ccccc1` (single isomer, unassigned) [Example 8], the Ki stood at 1.7 nM.

Take `C[C@@H]1OC(N)=N[C@H]1CCCc1ccccc1` [Example 11a, (4S,5S)-5-methyl-4-(3-phenyl-propyl)-4,5-dihydro-oxazol-2-ylamine]: the affinity corresponds to a Ki of 5.8 nM.

As to `C[C@H]1OC(N)=N[C@H]1CCc1ccc(Cl)cc1` [Example 14, (4S,5R)-4-[2-(4-Chloro-phenyl)-ethyl]-5-methyl-4,5-dihydro-oxazol-2-ylamine], the affinity corresponds to a Ki of 0.7 nM.

In turn, `C[C@@H]1OC(N)=N[C@@H]1CCc1ccccc1` [Example 7, (4R,5S)-5-Methyl-4-phenethyl-4,5-dihydro-oxazol-2-ylamine] showed a Ki of 27.3 nM.

As for `C[C@H]1OC(N)=N[C@H]1CCc1ccccc1` [Example 8a, (4S,5R)-5-methyl-4-phenethyl-4,5-dihydro-oxazol-2-ylamine], the Ki worked out at 3.1 nM.

Compound `CC1OC(N)=N[C@H]1Cc1ccccc1` (single isomer, unassigned) [Example 12] came in with a Ki of 159 nM.

Turning to `C[C@H]1OC(N)=N[C@H]1CCC1CCCCC1` [Example 13a, (4S,5R)-4-(2-cyclohexyl-ethyl)-5-methyl-4,5-dihydro-oxazol-2-ylamine], affinity was put at a Ki of 52.7 nM.

`C[C@@H]1OC(N)=N[C@H]1CCC1CCCCC1` [Example 13, (4S,5S)-4-(2-Cyclohexyl-ethyl)-5-methyl-4,5-dihydro-oxazol-2-ylamine] showed a Ki of 13.3 nM.

Turning to `C[C@H]1OC(N)=N[C@H]1CCCc1ccc(Cl)cc1` [Example 17, (4S,5R)-4-[3-(4-Chloro-phenyl)-propyl]-5-methyl-4,5-dihydro-oxazol-2-ylamine], the Ki worked out at 0.3 nM.

Take `C[C@H]1OC(N)=N[C@H]1CCc1ccc(Cl)c(Cl)c1` [Example 15, (4S,5R)-4-[2-(3,4-Dichloro-phenyl)-ethyl]-5-methyl-4,5-dihydro-oxazol-2-ylamine]: affinity was put at a Ki of 0.6 nM. This Ki lies about 2-fold higher than the previous one.

Turning to `c1ccc2c(c1)CCCC2C1=NCCN1` (racemic) [reference compound], the Kd amounted to 60 nM.

With `CCC1OC(N)=N[C@H]1CCc1ccccc1` (stereo partly drawn) [Example 9, (S)-5-Ethyl-4-phenethyl-4,5-dihydro-oxazol-2-ylamine], the Ki turned out to be 17.1 nM.

The compound `C[C@@H]1OC(N)=N[C@H]1CCc1ccc(Cl)cc1` [Example 14a, (4S,5S)-4-[2-(4-chloro-phenyl)-ethyl]-5-methyl-4,5-dihydro-oxazol-2-ylamine] displayed a Ki of 1.8 nM. This Ki is about 9.5-fold lower than that of the compound before.

`C[C@H]1OC(N)=N[C@H]1CCCc1ccccc1` [Example 11, (4S,5R)-5-Methyl-4-(3-phenyl-propyl)-4,5-dihydro-oxazol-2-ylamine]: the Ki came out at 0.9 nM.

A word on the Ki: it is the dissociation constant of the complex between target and ligand, obtained from inhibition or displacement. Low readings indicate higher affinity, high ones lower affinity. As a reminder, the Kd is the equilibrium constant for the complex coming apart. Low values mean tighter binding, high ones weaker binding.

(Values after patent US20100311798A1, “2-AMINOOXAZOLINES AS TAAR1 LIGANDS” (priority 2009, published 2010).)
